Tests used:
Format in all cases: in vivo, Sprague-Dawley rats
[1] = system: p75 neurotrophin receptor; assay: p75 expression in urothelium after SCI (RT-PCR, Western blot); conditions: urothelium after spinal cord injury (days 1 and 7)
Source text: The effect of YJ102 on urothelial cell apoptosis in bladder tissue after spinal cord injury was confirmed by TUNEL staining, and the protein levels of cleaved caspase-3 indicating caspase-3 activation, and UPIII as a urothelial marker were confirmed by Western blot analysis using p75 (Promega), cleaved caspase-3 (Cell signaling technology), and UPIII (Abcam) as primary antibodies. In addition, in order to confirm whether the mechanism of apoptosis was caused by a p75 neurotrophin receptor, which was involved in urothelial apoptosis, the expression level of p75 was confirmed by RT-PCR, Western blot analysis, and immunofluorescence staining. For RT-PCR analysis, the obtained bladder tissue sections were frozen in liquid nitrogen, and ground in a mortar and pestle to be completely lysed, and then RNA was isolated using a TRIZOL Reagent (Invitrogen) according to a manual, and 20 µl of the total mixture was prepared by using 1 µg of total RNA, and cDNA was synthesized using MMLV reverse transcriptase (Invitrogen).

[2] = system: nerve injury animal models (SCI, LSS, SNI); assay: Mechanical allodynia (von-Frey filaments, 50% paw withdrawal threshold) in nerve injury animal models
Description: (§1) To be used as a central nerve injury animal model, a traumatic spinal cord injury (SCI) model was prepared (FIG. 1A). Specifically, 230 to 250 g of male adult Sprague-Dawley rats were anesthetized by intraperitoneal injection of chloral hydrate (500 mg/kg), and then the back and neck regions were shaved, and the spinal cord under the back and neck regions was exposed without damaging the dura mater, and a laminectomy was performed at T9 to T10 levels. To stabilize the spine, the spinous processes of T8 and T11 were fixed, and the spine was damaged by free-falling a 10 g weight from a height of 25 mm using an NYU impactor onto the back surface of the exposed spinal cord and then the rats were left in a temperature and humidity-controlled chamber overnight while covering the muscles and skin. After surgery, the rats were subcutaneously injected with a supplement solution (5 ml, lactated ringer) and injected with antibiotics (gentamicin, 5 mg/kg, intramuscular injection) once daily for 5 days. The body weight, remaining food, and the weight of water were confirmed and recorded for all animals, and the bladder was emptied twice daily by passive bladder massage until reflex micturition was established. At this time, a Sham group was a group that was subjected to only laminectomy without damage.
To be used as a peripheral nerve injury animal model, a lumbar spinal stenosis (LSS) model was prepared (FIG. 1B). Specifically, 260 to 280 g of adult male Sprague-Dawley rats were anesthetized with intraperitoneal injection of chloral hydrate (500 mg/kg), the back region was shaved, and then the spinal plate was exposed at L4 to S2 levels. After removing the ligamentous section between L4 and L5, a trapezoidal silicone block (1.00 mm long × 1.3 to 1.2 mm wide × 1.0 mm high) was inserted into the epidural space below the L5 and L6 spinal plates without damaging the dural sac. At this time, a Sham group was a group that was subjected to only posterior […] on the animal without inserting a silicone block.
To be used as a peripheral nerve injury animal model, a sciatic nerve injury (SNI) model was prepared (FIG. 1C). Specifically, 200 to 220 g of male adult Sprague-Dawley rats were anesthetized by intraperitoneal injection of chloral hydrate (500 mg/kg), and then three terminal branches (tibial, common peroneal, and sural nerves) of the right sciatic nerve were approached, and the tibia nerve and the peroneal nerve were tightly ligated with 4-0 silk, and neurectomy was performed at a distal 3 mm position of the ligation site. At this time, a Sham group was a group that exposed only the sciatic nerve without damage.
In order to confirm a neuropathic pain inhibitory effect of YJ102 (Chemical Formula 1), a compound of the present disclosure, in the three nerve injury animal models prepared in Example 1 above, rats having pain on week 3 (SNI model) or week 4 (SCI model and LSS model) after surgery were selected and administered orally (p.o.) at 10 mg/kg or 20 mg/kg of YJ102 dissolved in a solution of DMSO, methyl pyrrolidinone, and water (1 : 1.5 : 1), or intraperitoneally injected (i.p. injection) at 1, 2, or 5 mg/kg of YJ102. In a positive control group, gabapentin or pregabalin dissolved in saline was intraperitoneally injected at a concentration of 5 mg/kg, and in a Vehicle group, the same amount of a solution of DMSO, methyl pyrrolidinone, and water was administered. Thereafter, in order to measure mechanical allodynia, the rats were located at the bottom of a transparent plastic box (10 cm × 10 cm) on top of a wire mesh (3 mm × 3 mm) and subjected to an adaptation period for approximately 20 minutes. Von-Frey filaments were applied to the soles of both paws and used with stiff nylon von-Frey monofilament series ([…], Stoelting, WoodDale, IL, USA; equivalent in grams to 0.4, 0.6, 1.0, 2.0, 4.0, 6.0, 8.0 and 15.0) with logarithmic increases in tactile (mechanical) sensitivity. […]

[3] = system: traumatic spinal cord injury (SCI) model; assay: Urinary function analysis in SCI model (residual urine volume, UBFS, bladder size and weight)
Description: as §1
In order to confirm the effect of YJ102 (Chemical Formula 1), a compound of the present disclosure, on urinary disturbances caused by spinal cord injury, immediately after preparing the traumatic spinal cord injury (SCI) model (FIG. 1A) prepared in Example 1 above, YJ102 was dissolved in DMSO, methyl pyrrolidinone, and water (1 : 1.5 : 1) and administered intraperitoneally at 5 mg/kg, and then intraperitoneally administered at 24-hour intervals for 7 days from the next day. Thereafter, the effect of improving bladder functions was analyzed through a residual urine volume test and a urinary bladder function score (UBFS). At this time, a Vehicle group was administered with the same amount of a solution of DMSO, methyl pyrrolidinone, and water. Specifically, in order to determine the amount of urine remaining in the bladder after spinal cord injury, bladder extrusion was performed twice a day by applying pressure to the central bottom portion of the lower abdomen using the index and middle fingers to empty the bladder, and the expelled urine was collected in a catheter and its volume was recorded. […]

[4] = all three models (SCI, LSS, SNI), orally 10 mg/kg or 20 mg/kg

CCc1ccc(N(C(=O)COC)c2nc3cc(Cl)ccc3o2)cc1 [YJ102]
p75 expression [1]: significantly reduced
duration of the analgesic effect [2, 4]: ≥ 4 h
time from which the mechanical allodynia threshold was increased after administration [2, 4]: 30 min
analgesic effect compared with gabapentin or pregabalin ([2]; intraperitoneal, same concentration as gabapentin or pregabalin, SCI, LSS, SNI models): more than twice as high
duration of the analgesic effect compared with existing drugs ([2]; intraperitoneal, versus gabapentin and pregabalin, SCI, LSS, SNI models): more than three times longer
bladder size ([3]; 5 mg/kg intraperitoneally): significantly reduced
bladder weight ([3]; 5 mg/kg intraperitoneally): significantly reduced
residual urine volume ([3]; 5 mg/kg intraperitoneally at 24-hour intervals, vs Veh group, from the first day of administration): significantly reduced
bladder function restoration using the UBFS ([3]; 5 mg/kg intraperitoneally, vs Vehicle group on day 3 and day 7 after spinal cord injury): significantly increased
